This is an account of results in paper PMC9856672, “SGC-CAMKK2-1: A Chemical Probe for CAMKK2” (Cells, 2023).

Assay [1] addresses PIM2 (Homo sapiens, UniProt Q9P1W9). As to the kind of experiment: PIM2 inhibition at Reaction Biology Corporation. Conditions: n = 1, read-out: PIM2 Enzyme IC50. Further details: purchased Reaction Biology Corporation. The format is biochemical.
The target of assay [2] is T1, ABL1(Y253F)-phosphorylated (Homo sapiens, UniProt P00519, Y253F).
T1 construct: purchased Eurofins DiscoverX KINOMEscan
The assay is described as follows: KINOMEscan 1 μM, ABL1(Y253F)-phosphorylated. It is filed as binding. Conditions: 1000 nM; Entrez ABL1; read-out: Percent Control. An excerpt: (§1) Supplement cells-12-00287-s001.zip/File S2. KinomeScan data for the CAMKK2 probe and negative control.xlsx, sheet "SGC-CAMKK2-1" | column: Percent Control

Assay [3] addresses T2, MAK (Homo sapiens, UniProt P20794).
T2 construct: purchased Eurofins DiscoverX KINOMEscan
As to the kind of experiment: KINOMEscan 1 μM, MAK. The format is binding. Conditions: 1000 nM; Entrez MAK; read-out: Percent Control.
Source text: as §1

Assay [4] concerns the target T3, CASK (Homo sapiens, UniProt O14936).
T3 construct: purchased Eurofins DiscoverX KINOMEscan
The assay is described as follows: KINOMEscan 1 μM, CASK. The format is binding. Conditions: 1000 nM; Entrez CASK; read-out: Percent Control.
Source text: as §1

For assay [5], the target named is T4, NLK (Homo sapiens, UniProt Q9UBE8).
T4 construct: purchased Eurofins DiscoverX KINOMEscan
The assay is described as follows: KINOMEscan 1 μM, NLK. It is filed as binding. Conditions: 1000 nM; Entrez NLK; read-out: Percent Control.
Source text: as §1

In assay [6] the target is T5, CSNK2A1 (Homo sapiens, UniProt P68400).
T5 construct: purchased Eurofins DiscoverX KINOMEscan
T5 sequence (P68400 whole entry): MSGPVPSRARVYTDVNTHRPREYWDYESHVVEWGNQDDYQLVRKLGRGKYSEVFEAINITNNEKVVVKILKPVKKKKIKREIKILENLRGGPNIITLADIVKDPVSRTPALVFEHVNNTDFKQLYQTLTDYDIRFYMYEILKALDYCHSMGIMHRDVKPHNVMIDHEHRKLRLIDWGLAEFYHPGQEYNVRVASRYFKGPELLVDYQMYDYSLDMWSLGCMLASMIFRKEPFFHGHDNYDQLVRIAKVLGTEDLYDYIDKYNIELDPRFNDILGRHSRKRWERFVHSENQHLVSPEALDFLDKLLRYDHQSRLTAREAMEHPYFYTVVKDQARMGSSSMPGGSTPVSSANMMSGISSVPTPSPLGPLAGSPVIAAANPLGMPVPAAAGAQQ
As to the kind of experiment: KINOMEscan 1 μM, CSNK2A1. The format is binding. Conditions: 1000 nM; Entrez CSNK2A1; read-out: Percent Control.
Source text: as §1

Assay [7] deals with T6, CSNK1D (Homo sapiens, UniProt P48730).
T6 construct: purchased Eurofins DiscoverX KINOMEscan
As to the kind of experiment: KINOMEscan 1 μM, CSNK1D. It is filed as binding. Conditions: 1000 nM; Entrez CSNK1D; read-out: Percent Control.
Source text: as §1

For assay [8], the target named is T7, CTK (Homo sapiens, UniProt P42679).
T7 construct: purchased Eurofins DiscoverX KINOMEscan
The assay is described as follows: KINOMEscan 1 μM, CTK. Conditions: 1000 nM; Entrez MATK; read-out: Percent Control. It is filed as binding.
Source text: as §1

In assay [9] the target is T8, EGFR(E746-A750del) (Homo sapiens, UniProt P00533, DEL746-750).
T8 construct: purchased Eurofins DiscoverX KINOMEscan
T8 sequence (P00533 with tags, fused parts or gaps DEL746-750 limits assumed): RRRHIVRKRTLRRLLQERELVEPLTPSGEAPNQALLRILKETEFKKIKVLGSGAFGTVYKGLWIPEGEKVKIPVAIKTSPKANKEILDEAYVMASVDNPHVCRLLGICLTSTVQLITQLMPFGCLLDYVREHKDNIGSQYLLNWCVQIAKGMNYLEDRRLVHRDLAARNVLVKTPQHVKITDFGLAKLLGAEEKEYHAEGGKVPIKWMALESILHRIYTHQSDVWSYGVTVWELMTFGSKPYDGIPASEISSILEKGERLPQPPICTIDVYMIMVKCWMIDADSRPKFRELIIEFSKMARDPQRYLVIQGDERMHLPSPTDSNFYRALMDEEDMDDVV
The assay is described as follows: KINOMEscan 1 μM, EGFR(E746-A750del). Conditions: 1000 nM; Entrez EGFR; read-out: Percent Control. It is filed as binding.
Source text: as §1

Assay [10] deals with T9, EPHA1 (Homo sapiens, UniProt P21709).
T9 construct: purchased Eurofins DiscoverX KINOMEscan
The assay is described as follows: KINOMEscan 1 μM, EPHA1. Conditions: 1000 nM; Entrez EPHA1; read-out: Percent Control. It is filed as binding.
Source text: as §1

Assay [11] addresses T10, HIPK4 (Homo sapiens, UniProt Q8NE63).
T10 construct: purchased Eurofins DiscoverX KINOMEscan
The assay is described as follows: KINOMEscan 1 μM, HIPK4. The format is binding. Conditions: 1000 nM; Entrez HIPK4; read-out: Percent Control.
Source text: as §1

In assay [12] the target is T11, KIT(L576P) (Homo sapiens, UniProt P10721, L576P).
T11 construct: purchased Eurofins DiscoverX KINOMEscan
T11 sequence (P10721 26-976 L576P): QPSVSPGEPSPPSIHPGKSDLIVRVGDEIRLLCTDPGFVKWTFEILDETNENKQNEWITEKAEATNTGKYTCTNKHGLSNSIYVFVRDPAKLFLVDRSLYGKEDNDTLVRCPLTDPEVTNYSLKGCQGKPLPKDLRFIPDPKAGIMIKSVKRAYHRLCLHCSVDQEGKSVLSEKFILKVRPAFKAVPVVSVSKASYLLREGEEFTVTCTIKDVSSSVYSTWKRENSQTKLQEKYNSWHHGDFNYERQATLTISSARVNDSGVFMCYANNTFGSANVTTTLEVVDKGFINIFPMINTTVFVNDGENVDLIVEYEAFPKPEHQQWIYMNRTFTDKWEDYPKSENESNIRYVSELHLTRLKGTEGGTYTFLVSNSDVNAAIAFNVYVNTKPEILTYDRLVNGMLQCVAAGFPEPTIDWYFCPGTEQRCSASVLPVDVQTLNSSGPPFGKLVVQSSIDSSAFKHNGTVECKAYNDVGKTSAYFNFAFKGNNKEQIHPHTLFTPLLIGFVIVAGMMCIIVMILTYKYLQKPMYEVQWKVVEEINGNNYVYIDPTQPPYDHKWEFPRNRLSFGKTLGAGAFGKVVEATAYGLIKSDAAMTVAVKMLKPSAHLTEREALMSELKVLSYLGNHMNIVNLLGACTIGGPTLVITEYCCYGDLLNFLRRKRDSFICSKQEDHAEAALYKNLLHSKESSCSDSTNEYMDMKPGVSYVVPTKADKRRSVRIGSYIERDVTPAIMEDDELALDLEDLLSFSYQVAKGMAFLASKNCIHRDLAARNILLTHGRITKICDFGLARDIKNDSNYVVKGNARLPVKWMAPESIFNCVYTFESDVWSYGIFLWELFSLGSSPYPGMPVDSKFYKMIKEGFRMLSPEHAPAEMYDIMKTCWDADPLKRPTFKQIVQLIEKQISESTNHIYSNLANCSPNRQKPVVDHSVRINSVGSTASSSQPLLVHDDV
The assay is described as follows: KINOMEscan 1 μM, KIT(L576P). Conditions: 1000 nM; Entrez KIT; read-out: Percent Control. It is filed as binding.
Source text: as §1

For assay [13], the target named is T12, KIT-autoinhibited (Homo sapiens, UniProt P10721).
T12 construct: purchased Eurofins DiscoverX KINOMEscan
T12 sequence (P10721 26-976): as the sequence (P10721 26-976 L576P) above, with P551L counted along it
The assay is described as follows: KINOMEscan 1 μM, KIT-autoinhibited. It is filed as binding. Conditions: 1000 nM; Entrez KIT; read-out: Percent Control.
Source text: as §1

Assay [14] addresses T13, NEK2 (Homo sapiens, UniProt P51955).
T13 construct: purchased Eurofins DiscoverX KINOMEscan
The assay is described as follows: KINOMEscan 1 μM, NEK2. The format is binding. Conditions: 1000 nM; Entrez NEK2; read-out: Percent Control.
Source text: as §1

Assay [15] has as its target T14, PDGFRB (Homo sapiens, UniProt P09619).
T14 construct: purchased Eurofins DiscoverX KINOMEscan
As to the kind of experiment: DiscoverX KINOMEscan binding assay at 1 μM, PDGFRB. Conditions: Compound Concentration 1000 nM, read-out: Percent Control.
Source text: as §1

The target in assay [16] is T15, PFTK1 (Homo sapiens, UniProt O94921).
T15 construct: purchased Eurofins DiscoverX KINOMEscan
As to the kind of experiment: DiscoverX KINOMEscan binding assay at 1 μM, PFTK1. Conditions: PFTK1 (CDK14); Compound Concentration 1000 nM; read-out: Percent Control.
Source text: as §1

The target in assay [17] is T16, PRKR (Homo sapiens, UniProt P19525).
T16 construct: purchased Eurofins DiscoverX KINOMEscan
As to the kind of experiment: DiscoverX KINOMEscan binding assay at 1 μM, PRKR. Conditions: PRKR (EIF2AK2); Compound Concentration 1000 nM; read-out: Percent Control.
Source text: as §1

The target of assay [18] is T17, TRKB (Homo sapiens, UniProt Q16620).
T17 construct: purchased Eurofins DiscoverX KINOMEscan
The assay is described as follows: DiscoverX KINOMEscan binding assay at 1 μM, TRKB. Conditions: TRKB (NTRK2); Compound Concentration 1000 nM; read-out: Percent Control.
Source text: as §1

The target of assay [19] is T18, TYK2(JH2domain-pseudokinase) (Homo sapiens, UniProt P29597).
T18 construct: TYK2(JH2domain-pseudokinase); purchased Eurofins DiscoverX KINOMEscan
T18 sequence (P29597 556-888 limits assumed): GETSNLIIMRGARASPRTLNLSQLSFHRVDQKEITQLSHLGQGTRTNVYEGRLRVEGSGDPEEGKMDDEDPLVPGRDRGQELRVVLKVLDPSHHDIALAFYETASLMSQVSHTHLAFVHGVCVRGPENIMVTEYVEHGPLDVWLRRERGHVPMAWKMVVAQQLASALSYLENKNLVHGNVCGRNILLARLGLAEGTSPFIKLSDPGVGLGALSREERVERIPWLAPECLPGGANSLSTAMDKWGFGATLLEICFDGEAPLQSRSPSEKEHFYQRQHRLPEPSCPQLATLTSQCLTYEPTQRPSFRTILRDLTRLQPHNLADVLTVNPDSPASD
As to the kind of experiment: DiscoverX KINOMEscan binding assay at 1 μM, TYK2(JH2domain-pseudokinase). Conditions: Compound Concentration 1000 nM, read-out: Percent Control.
Source text: as §1

Assay [20] deals with T19, KIT(D816V) (Homo sapiens, UniProt P10721, D816V).
T19 construct: purchased Eurofins DiscoverX KINOMEscan
T19 sequence (P10721 26-976 D816V): as the sequence (P10721 26-976 L576P) above, with P551L, D791V counted along it
As to the kind of experiment: KINOMEscan at 1 μM, KIT(D816V). It is filed as binding. Conditions: 1000 nM, read-out: Percent Control. The source says:
(§2) Supplement cells-12-00287-s001.zip/File S2. KinomeScan data for the CAMKK2 probe and negative control.xlsx, sheet "SGC-CAMKK2-1N" | column: Percent Control

The target of assay [21] is T20, ABL1(F317I)-nonphosphorylated (Homo sapiens, UniProt P00519, F317I).
T20 construct: purchased Eurofins DiscoverX KINOMEscan
The assay is described as follows: KINOMEscan at 1 μM, ABL1(F317I)-nonphosphorylated. The format is binding. Conditions: 1000 nM, read-out: Percent Control.
Source text: as §2

Assay [22] deals with T21, PIK3CB (Homo sapiens, UniProt P42338).
T21 construct: purchased Eurofins DiscoverX KINOMEscan
T21 sequence (P42338 whole entry): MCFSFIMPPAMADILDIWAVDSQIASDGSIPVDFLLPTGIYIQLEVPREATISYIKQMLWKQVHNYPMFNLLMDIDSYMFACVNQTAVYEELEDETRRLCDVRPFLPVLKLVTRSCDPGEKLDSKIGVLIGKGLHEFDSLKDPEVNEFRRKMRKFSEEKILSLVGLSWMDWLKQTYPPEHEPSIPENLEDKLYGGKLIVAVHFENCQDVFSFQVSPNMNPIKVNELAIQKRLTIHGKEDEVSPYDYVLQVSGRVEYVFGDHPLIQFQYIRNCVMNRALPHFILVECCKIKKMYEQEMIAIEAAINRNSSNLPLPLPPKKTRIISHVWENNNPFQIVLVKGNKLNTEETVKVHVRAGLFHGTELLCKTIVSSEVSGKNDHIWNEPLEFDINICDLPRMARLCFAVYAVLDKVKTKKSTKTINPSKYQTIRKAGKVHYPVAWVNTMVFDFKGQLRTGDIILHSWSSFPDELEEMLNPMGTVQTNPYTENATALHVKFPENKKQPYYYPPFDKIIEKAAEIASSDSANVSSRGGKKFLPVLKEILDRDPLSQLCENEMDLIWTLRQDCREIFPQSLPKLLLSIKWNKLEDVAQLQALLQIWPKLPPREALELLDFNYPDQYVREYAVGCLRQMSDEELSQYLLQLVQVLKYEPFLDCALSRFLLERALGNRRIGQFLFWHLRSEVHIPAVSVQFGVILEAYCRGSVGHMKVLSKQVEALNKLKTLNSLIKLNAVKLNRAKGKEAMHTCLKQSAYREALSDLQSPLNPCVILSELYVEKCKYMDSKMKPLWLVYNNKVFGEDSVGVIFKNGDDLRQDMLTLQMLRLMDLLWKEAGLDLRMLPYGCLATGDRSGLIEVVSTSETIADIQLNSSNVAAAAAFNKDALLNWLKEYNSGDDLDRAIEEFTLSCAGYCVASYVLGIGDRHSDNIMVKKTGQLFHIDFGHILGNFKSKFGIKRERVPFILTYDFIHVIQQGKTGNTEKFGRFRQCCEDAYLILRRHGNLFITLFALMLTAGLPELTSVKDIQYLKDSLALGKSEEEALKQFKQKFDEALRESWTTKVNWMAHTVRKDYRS
The assay is described as follows: KINOMEscan at 1 μM, PIK3CB. The format is binding. Conditions: 1000 nM, read-out: Percent Control.
Source text: as §2

In assay [23] the target is T22, RIOK3 (Homo sapiens, UniProt O14730).
T22 construct: purchased Eurofins DiscoverX KINOMEscan
As to the kind of experiment: KINOMEscan at 1 μM, RIOK3. The format is binding. Conditions: 1000 nM, read-out: Percent Control.
Source text: as §2

Assay [24] has as its target T23, RPS6KA5(Kin.Dom.2-C-terminal) (Homo sapiens, UniProt O75582).
T23 construct: RPS6KA5(Kin.Dom.2-C-terminal); purchased Eurofins DiscoverX KINOMEscan
As to the kind of experiment: KINOMEscan at 1 μM, RPS6KA5(Kin.Dom.2-C-terminal). It is filed as binding. Conditions: 1000 nM, read-out: Percent Control.
Source text: as §2

For assay [25], the target named is T24, MAP3K2 (Homo sapiens, UniProt Q9Y2U5).
T24 construct: purchased Eurofins DiscoverX KINOMEscan
The assay is described as follows: KINOMEscan at 1 μM, MAP3K2. Conditions: 1000 nM, read-out: Percent Control. The format is binding.
Source text: as §2

The target in assay [26] is T25, PKN2 (Homo sapiens, UniProt Q16513).
T25 construct: purchased Eurofins DiscoverX KINOMEscan
The assay is described as follows: KINOMEscan at 1 μM, PKN2. Conditions: 1000 nM, read-out: Percent Control. It is filed as binding.
Source text: as §2

Assay [27] concerns the target T26, CDK4-cyclinD3 (Homo sapiens, UniProt P11802).
T26 construct: purchased Eurofins DiscoverX KINOMEscan
The assay is described as follows: KINOMEscan at 1 μM, CDK4-cyclinD3. The format is binding. Conditions: 1000 nM, read-out: Percent Control.
Source text: as §2

In assay [28] the target is T27, FES (Homo sapiens, UniProt P07332).
T27 construct: purchased Eurofins DiscoverX KINOMEscan
As to the kind of experiment: KINOMEscan at 1 μM, FES. Conditions: 1000 nM, read-out: Percent Control. The format is binding.
Source text: as §2

Assay [29] addresses T28, ERK3 (Homo sapiens, UniProt Q16659).
T28 construct: purchased Eurofins DiscoverX KINOMEscan
The assay is described as follows: KINOMEscan at 1 μM, ERK3. It is filed as binding. Conditions: 1000 nM, read-out: Percent Control.
Source text: as §2

The target in assay [30] is T29, EGFR(L858R) (Homo sapiens, UniProt P00533, L858R).
T29 construct: purchased Eurofins DiscoverX KINOMEscan
T29 sequence (P00533 25-1210 L858R): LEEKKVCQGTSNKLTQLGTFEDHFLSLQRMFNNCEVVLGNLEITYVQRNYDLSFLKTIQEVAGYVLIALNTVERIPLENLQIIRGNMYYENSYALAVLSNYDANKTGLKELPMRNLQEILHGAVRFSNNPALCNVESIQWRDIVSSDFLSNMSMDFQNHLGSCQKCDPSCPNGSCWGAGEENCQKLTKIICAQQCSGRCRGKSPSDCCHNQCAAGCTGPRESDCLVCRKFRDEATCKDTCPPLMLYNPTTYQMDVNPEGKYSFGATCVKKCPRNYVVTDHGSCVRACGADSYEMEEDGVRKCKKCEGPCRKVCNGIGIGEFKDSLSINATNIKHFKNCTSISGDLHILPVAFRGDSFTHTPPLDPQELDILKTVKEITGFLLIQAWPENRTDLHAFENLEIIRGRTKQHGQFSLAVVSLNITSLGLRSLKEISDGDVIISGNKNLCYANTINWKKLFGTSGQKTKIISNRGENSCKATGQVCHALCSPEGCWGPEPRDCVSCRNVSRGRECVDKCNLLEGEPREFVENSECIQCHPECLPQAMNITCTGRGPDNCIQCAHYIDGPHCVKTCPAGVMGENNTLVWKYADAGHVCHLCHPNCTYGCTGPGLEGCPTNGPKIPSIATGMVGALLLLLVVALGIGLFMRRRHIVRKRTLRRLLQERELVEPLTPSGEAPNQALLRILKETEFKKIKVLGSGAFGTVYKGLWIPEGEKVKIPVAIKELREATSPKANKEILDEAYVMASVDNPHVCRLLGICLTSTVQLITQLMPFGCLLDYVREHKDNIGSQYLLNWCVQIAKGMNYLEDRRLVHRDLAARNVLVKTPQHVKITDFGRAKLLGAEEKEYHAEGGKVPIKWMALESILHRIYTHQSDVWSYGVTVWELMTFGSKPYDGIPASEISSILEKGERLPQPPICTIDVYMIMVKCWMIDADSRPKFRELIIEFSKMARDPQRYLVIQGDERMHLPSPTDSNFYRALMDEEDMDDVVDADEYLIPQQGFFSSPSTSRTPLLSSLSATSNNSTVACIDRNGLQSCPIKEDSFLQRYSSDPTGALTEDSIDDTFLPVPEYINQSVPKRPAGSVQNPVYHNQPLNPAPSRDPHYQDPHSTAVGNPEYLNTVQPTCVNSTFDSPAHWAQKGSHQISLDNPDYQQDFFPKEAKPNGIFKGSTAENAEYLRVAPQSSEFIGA
As to the kind of experiment: KINOMEscan binding assay at 1 μM, EGFR(L858R). Conditions: Compound Concentration 1000 nM; read-out: Percent Control.
Source text: as §2

For assay [31], the target named is T30, PIP5K1C (Homo sapiens, UniProt O60331).
T30 construct: purchased Eurofins DiscoverX KINOMEscan
The assay is described as follows: KINOMEscan binding assay at 1 μM, PIP5K1C. Conditions: Compound Concentration 1000 nM; read-out: Percent Control.
Source text: as §2

For assay [32], the target named is T31, YANK2 (Homo sapiens, UniProt Q9NY57).
T31 construct: purchased Eurofins DiscoverX KINOMEscan
The assay is described as follows: KINOMEscan binding assay at 1 μM, YANK2. Conditions: Compound Concentration 1000 nM; read-out: Percent Control.
Source text: as §2

T13 sequence (P51955 whole entry): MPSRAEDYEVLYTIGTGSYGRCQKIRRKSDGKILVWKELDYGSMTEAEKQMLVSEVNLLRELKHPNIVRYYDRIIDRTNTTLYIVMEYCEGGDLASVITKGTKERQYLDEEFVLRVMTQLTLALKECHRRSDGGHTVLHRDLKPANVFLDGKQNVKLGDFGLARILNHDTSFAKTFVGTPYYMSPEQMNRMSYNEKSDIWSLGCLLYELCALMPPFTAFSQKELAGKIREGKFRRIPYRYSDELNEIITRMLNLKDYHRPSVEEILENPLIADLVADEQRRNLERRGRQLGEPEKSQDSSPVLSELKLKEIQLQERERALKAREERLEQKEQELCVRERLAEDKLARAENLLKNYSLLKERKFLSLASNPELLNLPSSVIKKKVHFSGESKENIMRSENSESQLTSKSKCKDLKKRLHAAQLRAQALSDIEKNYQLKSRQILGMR

`O=C(O)c1ccc(-c2coc3ncc(-c4ccccc4)cc23)cc1Cl` [Compound 7]: the IC50 (in general, the midpoint of a concentration-inhibition curve) in [1] was found to be 1900 nM.

With `Cc1cccc(-c2cnc3occ(-c4ccc(C(=O)O)c(C5CCCC5)c4)c3c2)c1` [SGC-CAMKK2-1 (YL-36)], the remaining binding at 1 µM in assay [2] is 73%; in assay [3], 78%; in [4], 79%; in assay [5], 81%; in [6], 94%; in assay [7], 100%. Further, the remaining binding at 1 µM in assay [8], in assay [9], in [10], in assay [11], in assay [12] and in [13] was 100% in each case. The remaining binding at 1 µM in assay [14], in [15], in assay [16], in assay [17], in assay [18] and in assay [19] was 100% each time.

With `O=C(O)c1ccc(-c2coc3ncc(-c4ccccc4)cc23)cc1Cl` [SGC-CAMKK2-1N (UNC-YL-83)], the remaining binding at 1 µM in [20] is 32%; in [21], 37%; in [22], 67%; in assay [23], 76%; in assay [24], 82%; in assay [25] it was 83%. The remaining binding at 1 µM in [26] was 83%; in assay [27], 87%; in [28] it was 88%; in assay [29] it was 92%; in assay [30], 100%; in assay [31], 100%. The remaining binding at 1 µM in assay [32] worked out at 100%.
